Values after ≈ are worked out from the molar mass of the structure shown. Where a SMILES comes first, the peptide text is derived from it. [ ]: non-standard residue; d: D form. The star is where a group is joined. 2Nal = N[C@@H](Cc1ccc2ccccc2c1)C(=O)O; Octanoyl = CCCCCCCC(=O)*; Dab = NCC[C@H](N)C(=O)O; AEEA = NCCOCCOCC(=O)O
Legend:
K. pneumonia ATCC 13883 = format: cell-based, Klebsiella pneumoniae; details: K. pneumoniae ATCC 13883; MHB-II, inoculum 5 × 10^5 CFU/mL, 37 °C, 18–24 h, visual read-out, triplicate
Experimental: (§1) In the original report on S3(B), MIC experiments were carried out by using non-cation-adjusted MHB-I media. To this, bovine serum albumin (BSA) and acetic acid were added. The rationale for choosing a medium without cations is that cation-adjusted media (MHB-II) in some cases causes substantial inhibition of the activity of cationic peptides. Furthermore, some peptides are at risk of precipitation when diluted into MHB medium, which can be avoided via the addition of BSA and acetic acid. However, the use of MHB-II is favorable to imitate the in vivo conditions as much as possible. Both media were tested with and without the addition of BSA and acetic acid by trial and error. The use of pure MHB-II was compatible with S3(B) and its fatty acid analogues, and therefore was chosen for the MIC determinations. Noticeably, MHB-I with BSA and acetic acid led to precipitation of lipopeptides in the present work.
(§2) Cation-adjusted Mueller-Hinton broth (MHB-II) media (BD BBLTM Beef extract powder, BD BactoTMCasamino acids, and DIFCO soluble starch was from Becton, Dickinson and Company©, Franklin Lakes, NJ, USA). MHB media supplemented with 0.2% BSA was from Sigma Aldrich (St. Louis, MO, USA) and 0.01% acetic acid from VWR®. The 96 well plate cell-culture cluster, round-bottom, polypropylene plates, and V-shaped 96 well polypropylene plates were purchased from Corning® Inc., Costar®, Corning, NY, USA. Microseal® film was obtained from Bio-Rad Laboratories, Inc., Hercules, CA, USA. A VersaMaxTM Tunable Microplate Reader (Molecular Devices LLC, Sunnyvale, CA, USA) was used and the data were evaluated on a Softmax® Pro (Molecular Devices LLC).
(§3) The MIC experiments were performed according to a protocol adapted from Wiegand et al., with minor modifications. The MICs were determined in triplicate. The peptides were dissolved in Milli-Q water to produce 10 mg/mL stock solutions in small glass containers. The bacterial isolates to be tested were streaked onto agar plates to obtain single colonies, and the plates were incubated at 37 °C for 18–24 h. The strains tested were S. aureus ATCC 29213, P. aeruginosa ATCC 27853, E. coli ATCC 25922, A. baumannii ATCC 19606, and K. pneumonia ATCC 13883. Test compounds were prepared in 2-fold dilutions in 50 μL volumes in polypropylene microtiter plates. Bacterial cultures grown to OD600 = 0.1–0.4 were diluted to a desired OD600 of 0.001–0.002 corresponding to 1 × 10^6 CFU/mL. Next, 50 μL bacterial suspension was added to the microtiter plates, giving a final bacterial inoculum of 5 × 10^5 CFU/mL per well. The plates were incubated at 37 °C for 18–24 h. […] The MIC values were visually evaluated, and the MIC was set to the lowest concentration […] based on triplicate measurements. […]

P. aeruginosa ATCC 27853 [1] = format: cell-based, Pseudomonas aeruginosa; details: MHB-II, inoculum 5 × 10^5 CFU/mL, 37 °C, 18–24 h, visual read-out, triplicate
Experimental: as §1, with “The use of pure MHB-II was compatible with S3(B) and its fatty acid analogues, and therefore was chosen for the MIC determinations. Noticeably, MHB-I with BSA and acetic acid led to precipitation of lipopeptides in the present work.” left out
(§4) Cation-adjusted Mueller-Hinton broth (MHB-II) media (BD BBLTM Beef extract powder, BD BactoTMCasamino acids, and DIFCO soluble starch was from Becton, Dickinson and Company©, Franklin Lakes, NJ, USA). […] A VersaMaxTM Tunable Microplate Reader (Molecular Devices LLC, Sunnyvale, CA, USA) was used and the data were evaluated on a Softmax® Pro (Molecular Devices LLC).
(§5) The MIC experiments were performed according to a protocol adapted from Wiegand et al., with minor modifications. The MICs were determined in triplicate. […] The MIC values were visually evaluated, and the MIC was set to the lowest concentration […] based on triplicate measurements. […]

A. baumannii ATCC 19606 = format: cell-based, Acinetobacter baumannii; details: MHB-II, inoculum 5 × 10^5 CFU/mL, 37 °C, 18–24 h, visual read-out, triplicate
Experimental: as §1, with “The use of pure MHB-II was compatible with S3(B) and its fatty acid analogues, and therefore was chosen for the MIC determinations. Noticeably, MHB-I with BSA and acetic acid led to precipitation of lipopeptides in the present work.” left out
as §4, §5

S. aureus ATCC 29213 = assay: microbe, parasite or virus in culture; format: cell-based, Staphylococcus aureus; details: S. aureus ATCC 29213; MHB-II, inoculum 5 × 10^5 CFU/mL, 37 °C, 18–24 h, visual read-out, triplicate
Experimental: as §1, with “The use of pure MHB-II was compatible with S3(B) and its fatty acid analogues, and therefore was chosen for the MIC determinations. Noticeably, MHB-I with BSA and acetic acid led to precipitation of lipopeptides in the present work.” left out
as §4, §5

E. coli ATCC 25922 = format: cell-based, Escherichia coli; details: MHB-II, inoculum 5 × 10^5 CFU/mL, 37 °C, 18–24 h, visual read-out, triplicate
Experimental: as §1, §2, §3

P. aeruginosa ATCC 27853 [2] = system: P. aeruginosa ATCC 27853
Experimental: The MIC constitutes a limited measure for antimicrobial activity. It indicates whether or not AMPs in different concentrations are able to prevent visible growth of bacteria.
Time-kill experiments were performed on balanced exponentially growing cultures of P. aeruginosa ATCC 27853. We used balanced cultures as described in Oddo et al.. Briefly, overnight cultures were prepared in MHB-II broth at 37 °C with shaking. Overnight cultures were back-diluted and grown exponentially for no less than 8–10 generations before experimentation. When experiments were done, exponentially growing cultures were back-diluted to an OD600 = 0.0005 approximately 5 × 10^5 CFU, into fresh MHB-II heated to 37 °C. Samples (250 μL) were taken at time points 0, 1, 3, 5, and 24 h. Samples were spun down at 8000× g for 5 min and washed in 1 mL of NaCl 0.9% before being spun down again and re-suspended in 250 μL NaCl 0.9%. From this, 10-fold dilution series were prepared and 10 μL samples were spot-plated in triplicate onto LB-agar. From the undiluted sample, 100 μL samples were also plated, i.e., giving a detection limit of 10 CFU/mL.

`CCCCCCCC(=O)NCC[C@@H]1NC(=O)[C@H](CCN)NC(=O)[C@H](CCCNC(=N)N)NC(=O)[C@H](Cc2ccc3ccccc3c2)NC(=O)[C@H](CCN)NC(=O)[C@H](CC(N)=O)NC(=O)[C@H](CCN)NC(=O)[C@H](Cc2ccc3ccccc3c2)NC(=O)COCCOCCNC1=O` [(C8)^5] (cyclo([Dab][2Nal]R[Dab][Dab](Octanoyl)[AEEA][2Nal][Dab]N)) was tested, and the “Minimum inhibitory concentration, KP” value (K. pneumonia ATCC 13883) was greater than 64 µg/mL, the “Minimum inhibitory concentration, PA” value (P. aeruginosa ATCC 27853 [1]) was 8 µg/mL (≈ 5.99 µM) and the “Minimum inhibitory concentration, AB” value (A. baumannii ATCC 19606) was 16 µg/mL (≈ 12 µM). For the same compound, the “Minimum inhibitory concentration, SA” value (S. aureus ATCC 29213) was 8 µg/mL (≈ 5.99 µM), the “Minimum inhibitory concentration, EC” value (E. coli ATCC 25922) was 16 µg/mL (≈ 12 µM) and the “bacterial cell count over the first 5 h” value (P. aeruginosa ATCC 27853 [2]; 1 × MIC (8 μg/mL), 0–5 h, MHB-II, 37 °C) was “did not change”. For the same compound, the “log reduction of cell count within first hour of treatment” value (P. aeruginosa ATCC 27853 [2]; 5 × MIC ((C8)^5 40 μg/mL; colistin 2.5 μg/mL), 1 h, MHB-II, 37 °C, shaking, n = 3) was 4.5 log, the “cell count / growth after 24 h” value (P. aeruginosa ATCC 27853 [2]; 5 × MIC ((C8)^5 40 μg/mL; colistin 2.5 μg/mL), 24 h, detection limit 10 CFU/mL) was 10^4 CFU/mL and the “killing of the bacteria in the original inoculum” value (P. aeruginosa ATCC 27853 [2]; ATCC 27853, 1 h, 40 μg/mL) was greater than 99.9%.
